“And” between values parts separate entries of the source, which are not always exact repeats. Identical values can stand only once.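 Assay format: 96-well plates, 48-hour exposure. GI50: concentration for 50% inhibition of growth. TGI is the concentration that stops growth completely.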
Experiments:
Assay in all cases: inhibition of tumour cell growth, NCI panel, 48 h
SF-539 CNS = test system: SF-539 CNS
COLO 205 colon = test system: COLO 205 colon
SK-MEL-28 melanoma = test system: SK-MEL-28 melanoma
PC-3 prostate = test system: PC-3 prostate
A549 NSCLC = test system: A549 NSCLC
U251 CNS = test system: U251 CNS
OVCAR-8 ovarian = test system: OVCAR-8 ovarian
MALME-3M melanoma = test system: MALME-3M melanoma
OVCAR-5 ovarian = test system: OVCAR-5 ovarian
NCI-H460 lung = test system: NCI-H460 lung

## CCN(CC)c1ccc2nc3c4ccccc4c(=NC(=O)c4ccccc4-c4c5ccc(N(CC)CC)cc5[o+]c5cc(N(CC)CC)ccc45)cc-3oc2c1
SF-539 CNS
  GI50: 3.24 µM
  TGI: 8.73 µM
COLO 205 colon
  GI50: 1.59 µM
  TGI: 3.83 µM
SK-MEL-28 melanoma
  GI50: 5.06 µM
  TGI: 12.4 µM
PC-3 prostate
  GI50: 1.97 µM
  TGI: > 20.6 µM
A549 NSCLC
  GI50: 1.83 µM
  TGI: 5.08 µM
U251 CNS
  GI50: 2.33 µM
  TGI: 8.83 µM
OVCAR-8 ovarian
  GI50: 2.23 µM
  TGI: 12.2 µM
MALME-3M melanoma
  GI50: 2.92 µM
  TGI: 10.2 µM
OVCAR-5 ovarian
  GI50: 3.23 µM
  TGI: 11.9 µM
NCI-H460 lung
  GI50: 2.29 µM
  TGI: 10.1 µM

## CC(C)CNc1nc(N=[N+]=[N-])nc(NCC(C)C)n1
SF-539 CNS
  GI50: > 10 µM
  TGI: > 10 µM
COLO 205 colon
  GI50: > 10 µM
  TGI: > 10 µM
SK-MEL-28 melanoma
  GI50: > 10 µM
  TGI: > 10 µM
PC-3 prostate
  GI50: > 10 µM
  TGI: > 10 µM
A549 NSCLC
  GI50: > 10 µM
  TGI: > 10 µM
U251 CNS
  GI50: > 10 µM
  TGI: > 10 µM
OVCAR-8 ovarian
  GI50: > 10 µM
  TGI: > 10 µM
MALME-3M melanoma
  GI50: > 10 µM
  TGI: > 10 µM
OVCAR-5 ovarian
  GI50: > 10 µM
  TGI: > 10 µM
NCI-H460 lung
  GI50: > 10 µM
  TGI: > 10 µM

## CC[C@@]1(OC(=O)CN)C(=O)OCc2c1cc1n(c2=O)Cc2cc3c(N)c4c(cc3nc2-1)OCO4
SF-539 CNS
  GI50: < 0.0001 µM
  TGI: 0.000945 µM
COLO 205 colon
  GI50: 0.0419 µM and 0.11 µM
  TGI: 0.961 µM
SK-MEL-28 melanoma
  GI50: 0.0409 µM and 0.119 µM
  TGI: > 100 µM
PC-3 prostate
  GI50: 0.0361 µM and 0.0322 µM
  TGI: > 100 µM
A549 NSCLC
  GI50: 0.000195 µM
  TGI: 0.233 µM and 1.01 µM
U251 CNS
  GI50: < 0.0001 µM
  TGI: 0.0186 µM and 0.0571 µM
OVCAR-8 ovarian
  GI50: 0.000109 µM
  TGI: 0.107 µM and 0.0128 µM
MALME-3M melanoma
  GI50: 0.0124 µM
  TGI: 0.889 µM and 0.221 µM
OVCAR-5 ovarian
  GI50: 0.0065 µM and 0.0427 µM
NCI-H460 lung
  GI50: < 0.0001 µM

## c1cnc2c(c1)Nc1cnncc1S2
SF-539 CNS
  TGI: > 100 µM
COLO 205 colon
  TGI: > 100 µM
SK-MEL-28 melanoma
  TGI: > 100 µM
PC-3 prostate
  TGI: > 100 µM
A549 NSCLC
  TGI: > 100 µM
U251 CNS
  TGI: > 100 µM
OVCAR-8 ovarian
  TGI: > 100 µM
MALME-3M melanoma
  TGI: > 100 µM
OVCAR-5 ovarian
  TGI: > 100 µM
NCI-H460 lung
  TGI: > 100 µM

## CS[C@@]1(C(=O)Nc2ccc3[nH]nc(-c4ccc(OC(C)C)nc4)c3c2)CCN(CC(=O)N2CC=C(c3ccc(-c4ncn(C)n4)cc3)CC2)C1
SF-539 CNS
  GI50: > 100 µM
  TGI: > 100 µM
COLO 205 colon
  GI50: 0.0178 µM
  TGI: > 100 µM
SK-MEL-28 melanoma
  GI50: 0.0293 µM
  TGI: 0.441 µM
PC-3 prostate
  GI50: 6.56 µM
  TGI: > 100 µM
A549 NSCLC
  GI50: 1.6 µM
  TGI: > 100 µM
U251 CNS
  GI50: 1.65 µM
  TGI: > 100 µM
OVCAR-8 ovarian
  GI50: 9.31 µM
  TGI: > 100 µM
MALME-3M melanoma
  GI50: 0.0155 µM
  TGI: 0.105 µM
OVCAR-5 ovarian
  GI50: 0.131 µM
  TGI: > 100 µM
NCI-H460 lung
  GI50: > 100 µM
  TGI: > 100 µM

## O=C(/C=C/c1cccc(B(O)O)c1)c1cccc(B(O)O)c1
SF-539 CNS
  GI50: 1.84 µM
  TGI: 3.73 µM
COLO 205 colon
  GI50: 1.76 µM
  TGI: 3.45 µM
SK-MEL-28 melanoma
  GI50: 1.72 µM
  TGI: 3.46 µM
PC-3 prostate
  GI50: 2.53 µM
  TGI: 11.2 µM
A549 NSCLC
  GI50: 2.12 µM
  TGI: 5.81 µM
U251 CNS
  GI50: 0.406 µM
  TGI: 1.52 µM
OVCAR-8 ovarian
  GI50: 2.19 µM
  TGI: 7.23 µM
MALME-3M melanoma
  GI50: 2.26 µM
  TGI: 6.01 µM
OVCAR-5 ovarian
  GI50: 2.17 µM
  TGI: 4.87 µM
NCI-H460 lung
  GI50: 1.99 µM
  TGI: 4.53 µM

## COc1cnc2c(c1)C(=O)c1c-2n(CCCN2CCN(CCO)CC2)c(=O)c2cc([N+](=O)[O-])ccc12
SF-539 CNS
  GI50: 1.7 µM
  TGI: 3.68 µM
COLO 205 colon
  GI50: 1.18 µM
  TGI: 5.13 µM
SK-MEL-28 melanoma
  GI50: 2.01 µM
  TGI: 4.16 µM
PC-3 prostate
  GI50: 16.5 µM
  TGI: 92.6 µM
A549 NSCLC
  GI50: 1.13 µM
  TGI: 2.48 µM
U251 CNS
  GI50: 1.16 µM
  TGI: 2.42 µM
OVCAR-8 ovarian
  GI50: 1.39 µM
  TGI: 5.03 µM
MALME-3M melanoma
  GI50: 1.56 µM
  TGI: 3.33 µM
OVCAR-5 ovarian
  GI50: 19.5 µM
  TGI: 37.2 µM
NCI-H460 lung
  GI50: 0.267 µM
  TGI: 1.45 µM

## O=[N+]([O-])c1ccc(-c2ccccc2)c([As](=O)(O)O)c1
SF-539 CNS
  GI50: 13 µM
  TGI: 44.6 µM
COLO 205 colon
  GI50: 12.8 µM
  TGI: 27.4 µM
SK-MEL-28 melanoma
  GI50: 18 µM
  TGI: 50.3 µM
PC-3 prostate
  GI50: 16.1 µM
  TGI: > 100 µM
A549 NSCLC
  GI50: 27.2 µM
  TGI: > 100 µM
U251 CNS
  GI50: 3.08 µM
  TGI: 23.9 µM
OVCAR-8 ovarian
  GI50: 22.6 µM
  TGI: > 100 µM
MALME-3M melanoma
  GI50: 11.6 µM
  TGI: 34.6 µM
OVCAR-5 ovarian
  GI50: 28.4 µM
  TGI: > 100 µM
NCI-H460 lung
  GI50: 28 µM
  TGI: > 100 µM

## Cc1c(N2C(=O)/C(=C\c3ccc(N(C)C)cc3)N=C2c2ccccc2)c(=O)n(-c2ccccc2)n1C
SF-539 CNS
  GI50: > 100 µM
  TGI: > 100 µM
COLO 205 colon
  GI50: 43.7 µM
  TGI: > 100 µM
SK-MEL-28 melanoma
  GI50: > 100 µM
  TGI: > 100 µM
PC-3 prostate
  GI50: 29.7 µM
  TGI: > 100 µM
A549 NSCLC
  GI50: 79.1 µM
  TGI: > 100 µM
U251 CNS
  GI50: > 92.4 µM
  TGI: > 100 µM
OVCAR-8 ovarian
  GI50: 83.9 µM
  TGI: > 100 µM
MALME-3M melanoma
  GI50: > 100 µM
  TGI: > 100 µM
OVCAR-5 ovarian
  GI50: > 90.1 µM
  TGI: > 100 µM
NCI-H460 lung
  GI50: 62.9 µM
  TGI: > 100 µM

## O=C(NO)c1cnc(N2CCN(S(=O)(=O)c3ccc4ccccc4c3)CC2)nc1
SF-539 CNS
  GI50: 0.0762 µM
  TGI: 2.8 µM
COLO 205 colon
  GI50: 0.0564 µM
  TGI: 0.294 µM
SK-MEL-28 melanoma
  GI50: 0.062 µM
  TGI: 1.15 µM
PC-3 prostate
  GI50: 0.078 µM
  TGI: > 36 µM
A549 NSCLC
  GI50: 0.0459 µM
  TGI: 0.37 µM
U251 CNS
  GI50: 0.0654 µM
  TGI: 0.298 µM
OVCAR-8 ovarian
  GI50: 0.0276 µM
  TGI: 1.92 µM
MALME-3M melanoma
  GI50: 0.0224 µM
  TGI: 12.6 µM
OVCAR-5 ovarian
  GI50: 0.0394 µM
  TGI: 10.6 µM
NCI-H460 lung
  GI50: 0.0535 µM
  TGI: 11.9 µM
